These results are taken from US10611756B2, “Method of treating pancreatitis using 1,4-benzoxazine derivatives” (GLAXOSMITHKLINE INTELLECTUAL PROPERTY DEVELOPMENT LIMITED, priority 2015, dated 2020).

“And” between values parts separate entries of the source, which are not always exact repeats. Equal values may be shown once.

This assay has as its target human KMO (Homo sapiens, UniProt O15229). Description: KMO MS Rapidfire assay (RapidFire High-Throughput Mass Spectrometry, Method 1 or Method 2). As to conditions: median pIC50, in at least one of the MS Rapidfire assays (Method 1 or 2); isolated human KMO-membranes, 10 μM Kynurenine, 200 μM NADPH; values exemplary only.

Sequence of human KMO (O15229 whole entry): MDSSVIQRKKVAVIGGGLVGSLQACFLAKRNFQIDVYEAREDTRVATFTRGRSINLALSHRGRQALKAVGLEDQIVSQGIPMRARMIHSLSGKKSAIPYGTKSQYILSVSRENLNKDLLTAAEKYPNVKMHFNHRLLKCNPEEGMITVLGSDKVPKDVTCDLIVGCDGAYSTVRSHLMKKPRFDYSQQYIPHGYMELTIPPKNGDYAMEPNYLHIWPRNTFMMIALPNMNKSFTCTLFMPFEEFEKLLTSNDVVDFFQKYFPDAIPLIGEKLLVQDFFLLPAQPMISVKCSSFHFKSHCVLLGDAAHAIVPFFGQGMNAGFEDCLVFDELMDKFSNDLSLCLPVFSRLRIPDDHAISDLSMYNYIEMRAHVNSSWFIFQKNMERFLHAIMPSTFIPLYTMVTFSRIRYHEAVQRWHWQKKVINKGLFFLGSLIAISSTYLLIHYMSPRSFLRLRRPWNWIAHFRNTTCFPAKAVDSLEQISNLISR
Description: KMO inhibition can be determined by MS Rapidfire assay performed on the human cloned enzyme as described herein.
100 nL DMSO was dispensed into columns 6 and 18 for high and low controls, respectively, with prior inactivation of the enzyme in column 18 by pre-dispense of 30 μL of 0.5% (v/v) TFA.
Conditions for the assay of human KMO using isolated KMO-membranes were 50 mM HEPES, pH 7.5, 2 mM DTT, 1 mM EDTA, 100 μM CHAPS, 200 μM NADPH, 10 μM Kynurenine and 8 μg/ml KMO-membranes in a total reaction volume of 10 μL.
Assays were performed by initially dispensing 5 μL of a 2× Enzyme solution (16 μg/ml KMO-membranes in 50 mM HEPES, pH 7.5, 2 mM DTT, 2 mM EDTA, 200 μM CHAPS) into plates containing 100 nL compounds and incubating for 10 min at ambient temperature. […] All additions were made using a Multidrop Combi dispenser (Thermo Fisher Scientific).
Quenched assay plates were transferred to a high-throughput RapidFire200 integrated autosampler/solid-phase extraction (SPE) system (Agilent Technologies, Wakefield, Mass.). Samples were aspirated from each well for 500 ms and 10 μL was loaded directly onto a RapidFire micro-scale SPE C18 (type C) cartridge, which was washed for 3 s with HPLC-grade water containing 0.1% (v/v) formic acid to remove non-organic components. Analytes were then eluted into the mass spectrometer, in a 3 s elution cycle, using 80% (v/v) acetonitrile/water containing 0.1% (v/v) formic acid, and the cartridge was then equilibrated by washing with water containing 0.1% (v/v) formic acid for 500 ms. This gave a total cycle time of 7 s, enabling analysis of a 384-well plate in approximately 45 min.
Both Kyn and 3-HK were detected using a Sciex AP14000 triple quadrupole mass spectrometer (Applied Biosystems, Concord, Ontario, Canada), equipped with an electrospray interface and operated in positive ion mode. […] The mass spectrometer used an ESI voltage of 5500 V and a source temperature of 600° C., with a dwell time of 50 ms for each transition.
Using the integrated peak area for 3-HK data was analysed within ActivityBase (ID Business Solutions Ltd, Surrey, UK). Dose response curves were fitted to equation (1):
100 nL DMSO was dispensed into columns 6 and 18 for high and low controls, respectively, with prior inactivation of the enzyme in column 18 by pre-dispense of 50 μL of 0.5% (v/v) TFA.

Regarding `Cc1ncc(C(C)Oc2cc3c(cc2Cl)N(CCC(=O)O)C(=O)CO3)o1` (racemic) [Example 3, 2-amino-2-(hydroxymethyl)propane-1,3-diol; 3-{6-chloro-7-[1-(2-methyl-1,3-oxazol-5-yl)ethoxy]-3-oxo-3,4-dihydro-2H-1,4-benzoxazin-4-yl}propanoic acid], the IC50 is no more than 0.0316 µM. With `CC(Oc1cc2c(cc1Cl)N(CCC(=O)O)C(=O)CO2)c1ncc[nH]1` (racemic) [Example 6, 2-amino-2-(hydroxymethyl)propane-1,3-diol; 3-{6-chloro-7-[1-(1H-imidazol-2-yl)ethoxy]-3-oxo-3,4-dihydro-2H-1,4-benzoxazin-4-yl}propanoic acid] the figure was no more than 0.0316 µM. In the case of `CC(Oc1cc2c(cc1Cl)N(CCC(=O)O)C(=O)CO2)c1ncco1` (single isomer, unassigned) [Example 4, 2-amino-2-(hydroxymethyl)propane-1,3-diol; 3-{6-chloro-7-[1-(1,3-oxazol-2-yl)ethoxy]-3-oxo-3,4-dihydro-2H-1,4-benzoxazin-4-yl}propanoic acid] it was no more than 0.0316 µM. In the case of `CC(Oc1cc2c(cc1Cl)N(CCC(=O)O)C(=O)CO2)c1ncccn1` (single isomer, unassigned) [Example 7, 2-amino-2-(hydroxymethyl)propane-1,3-diol; 3-{6-chloro-3-oxo-7-[1-(pyrimidin-2-yl)ethoxy]-3,4-dihydro-2H-1,4-benzoxazin-4-yl}propanoic acid] it was no more than 0.0316 µM; in that of `CCC(Oc1cc2c(cc1Cl)N(CCC(=O)O)C(=O)CO2)c1ncccn1` (single isomer, unassigned) [Example 21, 3-{6-chloro-3-oxo-7-[1-(pyrimidin-2-yl)propoxy]-3,4-dihydro-2H-1,4-benzoxazin-4-yl}propanoic acid], no more than 0.0316 µM. In turn, `CCC(Oc1cc2c(cc1Cl)N(CCC(=O)O)C(=O)CO2)c1ncc(C)cn1` (single isomer, unassigned) [Example 23, 3-{6-chloro-7-[1-(5-methylpyrimidin-2-yl)propoxy]-3-oxo-3,4-dihydro-2H-1,4-benzoxazin-4-yl}propanoic acid] returned an IC50 of no more than 0.0316 µM. In the case of `CCC(Oc1cc2c(cc1Cl)N(CCC(=O)O)C(=O)CO2)c1ncc(Cl)cn1` (single isomer, unassigned) [Example 26, 3-{6-chloro-7-[1-(5-chloropyrimidin-2-yl)propoxy]-3-oxo-3,4-dihydro-2H-1,4-benzoxazin-4-yl}propanoic acid] it was no more than 0.0316 µM.

With `CCC(Oc1cc2c(cc1Cl)N(CCC(=O)O)C(=O)CO2)c1cccnn1` (single isomer, unassigned) [Example 28, 3-{6-chloro-3-oxo-7-[1-(pyridazin-3-yl)propoxy]-3,4-dihydro-2H-1,4-benzoxazin-4-yl}propanoic acid], the IC50 is no more than 0.0316 µM. With `CCC(Oc1cc2c(cc1Cl)N(CCC(=O)O)C(=O)CO2)c1ccc(C)nn1` (single isomer, unassigned) [Example 29, 3-{6-chloro-7-[1-(6-methylpyridazin-3-yl)propoxy]-3-oxo-3,4-dihydro-2H-1,4-benzoxazin-4-yl}propanoic acid] the figure was no more than 0.0316 µM; with `CC[C@@H](Oc1cc2c(cc1Cl)N(CCC(=O)O)C(=O)CO2)c1ccc(Cl)cn1` [Example 1, (R)-3-(6-Chloro-7-(1-(5-chloropyridin-2-yl)propoxy)-3-oxo-2H-benzo[b][1,4]oxazin-4(3H)-yl)propanoic Acid], ≤ 0.0316 µM and 0.001 µM; with `O=C(O)CCN1C(=O)COc2cc(OCc3ccccn3)c(Cl)cc21` [Example 9, 3-[6-chloro-3-oxo-7-(pyridin-2-ylmethoxy)-3,4-dihydro-2H-1,4-benzoxazin-4-yl]propanoic acid], no more than 0.0316 µM.
